From PMC6691788, “Design and synthesis of phthalazine-based compounds as potent anticancer agents with potential antiangiogenic activity via VEGFR-2 inhibition” (Journal of Enzyme Inhibition and Medicinal Chemistry, 2019)

How the values were obtained:
Test in all cases: NCI 60 cell panel SRB screen
M14 = type: cell-based; conditions: Homo sapiens
SK-MEL-28 = type: cell-based; conditions: Homo sapiens
UACC-62 = type: cell-based
IGROV1 = type: cell-based; conditions: Homo sapiens, IGROV-1
OVCAR-5 = type: cell-based; conditions: Homo sapiens
786-0 = type: cell-based; conditions: Homo sapiens
A498 = type: cell-based; conditions: Homo sapiens
CAKI-1 = type: cell-based, human
RXF 393 = type: cell-based; conditions: Homo sapiens
TK-10 = type: cell-based, human
DU-145 = type: cell-based; conditions: Homo sapiens
HS 578T = type: cell-based; conditions: Homo sapiens
BT-549 = type: cell-based; conditions: Homo sapiens

**Q.** Which GI50 (M14; M14) does the source give for `O=C(Nc1ccc(Cl)cc1)Nc1ccc(Nc2nncc3ccccc23)cc1` [Compound 6b, 1–(4-Chlorophenyl)-3–(4-(phthalazin-1-ylamino)phenyl)urea] here?
**A.** 1.52 µM

**Q.** What about the IC (TGI) (M14; M14, read-out: TGI) of the same compound?
**A.** 11.5 µM

**Q.** What about the activity at 10 µM (M14; M14, read-out: percent cell growth promotion) of the same compound?
**A.** 19.3%

**Q.** And the CC50 (M14; M14, 5 log dose, 48 h, read-out: LC50 (the source's name))?
**A.** 40.7 µM

**Q.** And the GI50 (SK-MEL-28; SK-MEL-28)?
**A.** 3.04 µM

**Q.** And the IC (TGI) (SK-MEL-28; SK-MEL-28, read-out: TGI)?
**A.** 12.8 µM

**Q.** What about the activity at 10 µM (SK-MEL-28; SK-MEL-28, read-out: percent cell growth promotion) of the same compound?
**A.** 44.1%

**Q.** What about the CC50 (SK-MEL-28; SK-MEL-28, 5 log dose, 48 h, read-out: LC50 (the source's name)) of the same compound?
**A.** 51.5 µM

**Q.** And the GI50 (UACC-62; Homo sapiens, UACC-62)?
**A.** 0.95 µM

**Q.** What about the activity at 10 µM (UACC-62; Homo sapiens, UACC-62, read-out: percent cell growth promotion) of the same compound?
**A.** 13.4%

**Q.** And the CC50 (UACC-62; Homo sapiens, UACC-62, 5 log dose, 48 h, read-out: LC50 (the source's name))?
**A.** 38.1 µM

**Q.** What about the TGI (UACC-62; UACC-62, 5 log dose) of the same compound?
**A.** 7.97 µM

**Q.** And the GI50 (IGROV1; IGROV1, 5 log dose)?
**A.** 2.52 µM

**Q.** What about the IC (TGI) (IGROV1; IGROV1, 5 log dose) of the same compound?
**A.** 30.7 µM

**Q.** And the CC50 (IGROV1; IGROV1, 5 log dose, 48 h, read-out: LC50 (the source's name))?
**A.** > 100 µM

**Q.** And the activity at 10 µM (IGROV1; IGROV1, single dose 10 μM, read-out: percent cell growth promotion)?
**A.** 39.7%

**Q.** And the GI50 (OVCAR-5; OVCAR-5, 5 log dose)?
**A.** 4.15 µM

**Q.** And the IC (TGI) (OVCAR-5; OVCAR-5, 5 log dose)?
**A.** 34.3 µM

**Q.** And the CC50 (OVCAR-5; OVCAR-5, 5 log dose, 48 h, read-out: LC50 (the source's name))?
**A.** > 100 µM

**Q.** What about the activity at 10 µM (OVCAR-5; OVCAR-5, single dose 10 μM, read-out: percent cell growth promotion) of the same compound?
**A.** 85.6%

**Q.** What about the GI50 (786-0; 786-0, 5 log dose) of the same compound?
**A.** 3.09 µM

**Q.** And the IC (TGI) (786-0; 786-0, 5 log dose)?
**A.** 25.2 µM

**Q.** What about the CC50 (786-0; 786-0, 5 log dose, 48 h, read-out: LC50 (the source's name)) of the same compound?
**A.** > 100 µM

**Q.** What about the activity at 10 µM (786-0; 786-0, single dose 10 μM, read-out: percent cell growth promotion) of the same compound?
**A.** 50.4%

**Q.** What about the GI50 (A498; A498, 5 log dose) of the same compound?
**A.** 3.79 µM

**Q.** What about the IC (TGI) (A498; A498, 5 log dose) of the same compound?
**A.** 18.8 µM

**Q.** And the CC50 (A498; A498, 5 log dose, 48 h, read-out: LC50 (the source's name))?
**A.** > 100 µM

**Q.** What about the activity at 10 µM (A498; A498, single dose 10 μM, read-out: percent cell growth promotion) of the same compound?
**A.** 24.5%

**Q.** And the TGI (CAKI-1; CAKI-1, 5 log dose)?
**A.** 12.5 µM

**Q.** What about the GI50 (CAKI-1; Homo sapiens, CAKI-1, 5 log dose) of the same compound?
**A.** 1.97 µM

**Q.** And the CC50 (CAKI-1; Homo sapiens, CAKI-1, 5 log dose, 48 h, read-out: LC50 (the source's name))?
**A.** 88 µM

**Q.** And the activity at 10 µM (CAKI-1; Homo sapiens, CAKI-1, single dose 10 μM, read-out: percent cell growth promotion)?
**A.** 20.6%

**Q.** And the GI50 (RXF 393; RXF 393, 5 log dose)?
**A.** 4.28 µM

**Q.** What about the IC (TGI) (RXF 393; RXF 393, 5 log dose) of the same compound?
**A.** 21.4 µM

**Q.** What about the CC50 (RXF 393; RXF 393, 5 log dose, 48 h, read-out: LC50 (the source's name)) of the same compound?
**A.** > 100 µM

**Q.** What about the activity at 10 µM (RXF 393; RXF 393, single dose 10 μM, read-out: percent cell growth promotion) of the same compound?
**A.** 65.7%

**Q.** And the GI50 (TK-10; Homo sapiens, TK-10, 5 log dose)?
**A.** 5.03 µM

**Q.** And the CC50 (TK-10; Homo sapiens, TK-10, 5 log dose, 48 h, read-out: LC50 (the source's name))?
**A.** > 100 µM

**Q.** And the activity at 10 µM (TK-10; Homo sapiens, TK-10, single dose 10 μM, read-out: percent cell growth promotion)?
**A.** 32%

**Q.** What about the TGI (TK-10; TK-10, 5 log dose) of the same compound?
**A.** 24.4 µM

**Q.** And the GI50 (DU-145; DU-145, 5 log dose)?
**A.** 3.17 µM

**Q.** What about the IC (TGI) (DU-145; DU-145, 5 log dose) of the same compound?
**A.** 26.9 µM

**Q.** And the CC50 (DU-145; DU-145, 5 log dose, 48 h, read-out: LC50 (the source's name))?
**A.** > 100 µM

**Q.** And the activity at 10 µM (DU-145; DU-145, single dose 10 μM, read-out: percent cell growth promotion)?
**A.** 33.7%

**Q.** What about the GI50 (HS 578T; Hs-578T) of the same compound?
**A.** 3.83 µM

**Q.** And the IC (TGI) (HS 578T; Hs-578T, read-out: TGI)?
**A.** 27.7 µM

**Q.** And the activity at 10 µM (HS 578T; Hs-578T, read-out: percent cell growth promotion)?
**A.** 58.3%

**Q.** What about the CC50 (HS 578T; HS 578T, 5 log dose, 48 h, read-out: LC50 (the source's name)) of the same compound?
**A.** > 100 µM

**Q.** And the GI50 (BT-549; BT-549)?
**A.** 2.15 µM

**Q.** What about the IC (TGI) (BT-549; BT-549, read-out: TGI) of the same compound?
**A.** 9.28 µM

**Q.** And the activity at 10 µM (BT-549; BT-549, read-out: percent cell growth promotion)?
**A.** 15.7%

**Q.** What about the CC50 (BT-549; BT-549, 5 log dose, 48 h, read-out: LC50 (the source's name)) of the same compound?
**A.** > 100 µM
